As a reminder, the pIC50 is the IC50 on a negative log10 scale, so that one unit is a factor of ten. As usually defined, the IC50 is the concentration that gives 50% inhibition.

Chain of GluA1o-γ8 (P42261 other isoform, or with tags, fused parts or gaps): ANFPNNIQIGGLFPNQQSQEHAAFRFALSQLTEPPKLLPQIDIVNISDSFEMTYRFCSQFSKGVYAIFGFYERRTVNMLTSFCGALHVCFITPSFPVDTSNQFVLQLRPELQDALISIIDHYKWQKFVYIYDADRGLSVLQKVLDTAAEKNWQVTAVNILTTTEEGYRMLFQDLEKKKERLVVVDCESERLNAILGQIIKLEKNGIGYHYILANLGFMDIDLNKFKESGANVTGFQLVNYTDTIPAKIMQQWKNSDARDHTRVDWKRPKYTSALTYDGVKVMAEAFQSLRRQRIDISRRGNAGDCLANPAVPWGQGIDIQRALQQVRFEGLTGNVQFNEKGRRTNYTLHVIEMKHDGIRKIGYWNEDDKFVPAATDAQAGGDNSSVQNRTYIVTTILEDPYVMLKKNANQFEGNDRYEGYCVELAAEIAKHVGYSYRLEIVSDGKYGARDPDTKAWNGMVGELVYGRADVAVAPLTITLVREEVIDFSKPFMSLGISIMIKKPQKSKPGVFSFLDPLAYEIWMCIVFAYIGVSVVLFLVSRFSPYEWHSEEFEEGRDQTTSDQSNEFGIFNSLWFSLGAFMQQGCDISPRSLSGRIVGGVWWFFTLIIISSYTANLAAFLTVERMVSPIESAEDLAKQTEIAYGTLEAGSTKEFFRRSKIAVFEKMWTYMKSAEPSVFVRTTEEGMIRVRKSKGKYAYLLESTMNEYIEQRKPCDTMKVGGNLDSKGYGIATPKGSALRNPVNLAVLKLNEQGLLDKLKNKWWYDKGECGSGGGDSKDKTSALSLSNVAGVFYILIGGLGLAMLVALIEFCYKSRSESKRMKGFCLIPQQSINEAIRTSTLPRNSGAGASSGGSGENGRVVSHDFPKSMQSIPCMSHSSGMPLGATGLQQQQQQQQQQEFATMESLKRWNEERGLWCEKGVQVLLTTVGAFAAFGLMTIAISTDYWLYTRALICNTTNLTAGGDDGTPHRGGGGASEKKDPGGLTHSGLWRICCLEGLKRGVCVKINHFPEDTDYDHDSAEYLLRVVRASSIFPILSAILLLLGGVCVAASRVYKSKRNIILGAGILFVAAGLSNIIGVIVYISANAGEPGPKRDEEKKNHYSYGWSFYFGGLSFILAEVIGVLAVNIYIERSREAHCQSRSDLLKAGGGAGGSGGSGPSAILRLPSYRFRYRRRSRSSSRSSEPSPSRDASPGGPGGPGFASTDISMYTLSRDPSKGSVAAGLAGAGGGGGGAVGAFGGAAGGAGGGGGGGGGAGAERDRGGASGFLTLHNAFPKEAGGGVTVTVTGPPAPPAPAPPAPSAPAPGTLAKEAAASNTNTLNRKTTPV

This assay concerns the target GluA1o-γ8 (Homo sapiens (Human), UniProt P42261+Q8WXS5). Put plainly: Calcium flux assay (FLIPR), inhibition of TARP γ8 dependent AMPA receptor activity. To be noted: HEK293 cells stably expressing GRIA1o-CACNG8 fusion construct; calcium flux following 15 μM glutamate; negative log of IC50 in molar. It is filed as cell-based. The source says:
This assay was used to test compounds for their ability to inhibit TARP γ8 dependent AMPA receptor activity. The AMPA receptor is a non-selective cation channel activated by glutamate. Ionotropic glutamate receptors normally desensitize too rapidly to allow detectable calcium influx in a FLIPR assay (Strange et al. (2006). “Functional characterisation of homomeric ionotropic glutamate receptors GluR1-GluR6 in a fluorescence-based high throughput screening assay.” Comb Chem High Throughput Screen 9(2): 147-158). But, this desensitization is incomplete, and a substantial steady-state current remains in the sustained presence of glutamate (Cho et al. (2007). “Two families of TARP isoforms that have distinct effects on the kinetic properties of AMPA receptors and synaptic currents.” Neuron 55(6): 890-904).
An in vitro assay was used to determine the potency of test compounds as inhibitors of the glutamate response of the channel formed by GluA1o-γ8. To ensure a 1:1 stoichiometry of GluA1o and γ8 subunits in the expressed channel, a fusion of the cDNAs for GRIA1o and CACNG8 was used. Following Shi et al (2009) “The stoichiometry of AMPA receptors and TARPs varies by neuronal cell type.” Neuron 62(5): 633-640), the C-terminus of the cDNA for GRIA1o was fused to the N-terminus of the cDNA for γ8. The linker sequence was QQQQQQQQQQEFAT. Channels expressed with this construct appear to have similar properties to channels formed by co-expression of GRIA1o with an excess of CACNG8 (Shi et al. 2009). A clonal cell line in HEK293 cells stably expressing this construct, with a geneticin selection marker, was generated for use in this assay.
Cell expressing the GRIA1o-CACNG8 fusion construct were grown in a monolayer in 96- or 384-well microtiter plates. They were washed with assay buffer (135 mM NaCl, 4 mM KCl, 3 mM CaCl2, 1 mM MgCl2, 5 mM glucose, 10 mM HEPES, pH 7.4, 300 mOs) using a Biotek EL405 plate washer. The cells were then loaded with a calcium-sensitive dye (Calcium-5 or Calcium-6, Molecular Devices) and the test compounds at a range of concentrations. Calcium flux following the addition of 15 μM glutamate was monitored using a Molecular Devices FLIPR Tetra.
The fluorescence in each well was normalized to the fluorescence of negative and positive control wells. The negative control wells had no added compounds, and the positive control wells had been incubated with 10 μM CP465022 (a non-subtype-selective AMPA receptor antagonist) (Lazzaro et al. (2002). “Functional characterization of CP-465,022, a selective, noncompetitive AMPA receptor antagonist.” Neuropharmacology 42(2): 143-153). The responses to glutamate as functions of the test compound concentrations were fitted to a four-parameter logistic function. The fitted parameter corresponding to the midpoint was taken to be the potency of inhibition of the compound. The data in Table 4 below illustrates the observed potency for the compounds described herein. pIC50 refers to the negative log of the IC50 in molar.
In general terms: Calcium assays in cells follow changes in intracellular calcium, usually with a dye or a luminescent sensor.
For `Cc1cc(-c2c(Cl)ccn3cc(C(F)(F)F)nc23)cc2cn[nH]c12` [Example 60, 7-Chloro-8-(7-methyl-1H-indazol-5-yl)-2-(trifluoromethyl)imidazo[1,2-a]pyridine], the pIC50 amounted to 9.0.

On to `Cc1nc(C2CC2)c(-c2cc(Cl)c3[nH]ncc3c2)c2nc(C(F)F)cn12` [Example 80, 8-(7-Chloro-1H-indazol-5-yl)-7-cyclopropyl-2-(difluoromethyl)-5-methyl-imidazo[1,2-c]pyrimidine], for which the negative logarithm of the IC50 (pIC50) came to 9.2.

For `Cc1ccn2nc(C(F)(F)F)nc2c1-c1cc(C)c2[nH]ncc2c1` [Example 27, 7-Methyl-8-(7-methyl-1H-indazol-5-yl)-2-(trifluoromethyl)-[1,2,4]triazolo[1,5-a]pyridine], the pIC50 is given as 8.4. `Fc1c(C2CC2)nc2c(-c3cc(Cl)c4[nH]ncc4c3)c(C(F)(F)F)ncn12` [Example 82, 8-(7-Chloro-1H-indazol-5-yl)-2-cyclopropyl-3-fluoro-7-(trifluoromethyl)imidazo[1,2-c]pyrimidine]: the pIC50 is reported as 9.5. The same measure, in the same setting: in the case of `O=C1Cc2cc(-c3c(C(F)(F)F)ccn4nc(C(F)F)nc34)cc(Cl)c2N1` [Example 17, 7-Chloro-5-(2-(difluoromethyl)-7-(trifluoromethyl)-[1,2,4]triazolo[1,5-a]pyridin-8-yl)indolin-2-one] it was 8.9. On the same count and under the same terms, in the case of `Fc1ccc(-c2ccn3nc(C(F)(F)F)nc3c2-c2ccc3[nH]nc(F)c3c2)cc1` [Example 45, 8-(3-Fluoro-1H-indazol-5-yl)-7-(4-fluorophenyl)-2-(trifluoromethyl)-[1,2,4]triazolo[1,5-a]pyridine] it was 7.6; in that of `Cc1cc(-c2c(-c3ccc(F)cc3)ccn3nc(C4CC4)nc23)cc2cn[nH]c12` [Example 48, 2-Cyclopropyl-7-(4-fluorophenyl)-8-(7-methyl-1H-indazol-5-yl)-[1,2,4]triazolo[1,5-a]pyridine], 10.1; in that of `FC(F)(F)c1ccn2nc(C3CC3)nc2c1-c1cc(Cl)c2[nH]ncc2c1` [Example 30, 8-(7-Chloro-1H-indazol-5-yl)-2-cyclopropyl-7-(trifluoromethyl)-[1,2,4]triazolo[1,5-a]pyridine], 9.8. Take `CC(C)c1ncn2cc(C(F)(F)F)nc2c1-c1cc(Cl)c2[nH]ncc2c1` [Example 71, 8-(7-Chloro-1H-indazol-5-yl)-7-isopropyl-2-(trifluoromethyl)imidazo[1,2-c]pyrimidine]: the pIC50 turned out to be 9.8. On the same count and under the same terms, in the case of `CCc1nc2c(-c3cc(C)c4[nH]ncc4c3)c(C(F)(F)F)ccn2n1` [Example 35, 2-Ethyl-8-(7-methyl-1H-indazol-5-yl)-7-(trifluoromethyl)-[1,2,4]triazolo[1,5-a]pyridine] it was 8.8; in that of `FC(F)(F)c1nc2c(-c3cc(Cl)c4[nH]ncc4c3)c(C(F)(F)F)ccn2n1` [Example 19, 8-(7-Chloro-1H-indazol-5-yl)-2,7-bis(trifluoromethyl)-[1,2,4]triazolo[1,5-a]pyridine], 9.6; in that of `Cc1cc(-c2c(C(F)(F)F)ccn3cc(C4CC4)nc23)cc2cn[nH]c12` [Example 91, 2-Cyclopropyl-8-(7-methyl-1H-indazol-5-yl)-7-(trifluoromethyl)imidazo[1,2-a]pyridine], 9.6. Consider `Cc1cc(-c2c(N3CCC3)ccn3nc(C(F)(F)F)nc23)cc2cn[nH]c12` [Example 7, 7-(Azetidin-1-yl)-8-(7-methyl-1H-indazol-5-yl)-2-(trifluoromethyl)-[1,2,4]triazolo[1,5-a]pyridine], for which the pIC50 was 9.5.

For `Cc1cc(-c2c(-c3ccc(F)cc3)ccn3nc(C4CCCC4)nc23)cc2cn[nH]c12` [Example 9, 2-Cyclopentyl-7-(4-fluorophenyl)-8-(7-methyl-1H-indazol-5-yl)-[1,2,4]triazolo[1,5-a]pyridine], the pIC50 came out at 10.8. Same read-out and setting: in the case of `Cc1cc(-c2c(C#N)ccn3nc(C(F)(F)F)nc23)cc2cn[nH]c12` [Example 10, 8-(7-Methyl-1H-indazol-5-yl)-2-(trifluoromethyl)-[1,2,4]triazolo[1,5-a]pyridine-7-carbonitrile] it was 7.7. As to `FC(F)(F)c1cn2cnc(C(F)(F)F)c(-c3cc(Cl)c4[nH]ncc4c3)c2n1` [Example 13, 8-(7-Chloro-1H-indazol-5-yl)-2,7-bis(trifluoromethyl)imidazo[1,2-c]pyrimidine], the IC50 is 0.316 nM. As to `FC(F)(F)c1ncn2cc(C3CC3)nc2c1-c1cc(Cl)c2[nH]ncc2c1` [Example 67, 8-(7-Chloro-1H-indazol-5-yl)-2-cyclopropyl-7-(trifluoromethyl)imidazo[1,2-c]pyrimidine], the pIC50 is 9.9. With `CCc1cn2cnc(C(F)(F)F)c(-c3cc(C)c4[nH]ncc4c3)c2n1` [Example 65, 2-Ethyl-8-(7-methyl-1H-indazol-5-yl)-7-(trifluoromethyl)imidazo[1,2-c]pyrimidine], the pIC50 was found to be 8.8. The same measure, in the same setting: in the case of `FC(F)c1nc2c(-c3cc(Cl)c4[nH]ncc4c3)c(C(F)(F)F)ccn2n1` [Example 1, 8-(7-Chloro-1H-indazol-5-yl)-2-(difluoromethyl)-7-(trifluoromethyl)-[1,2,4]triazolo[1,5-a]pyridine] it was 9.5; in that of `Cc1cc(-c2c(-c3ccc(F)cc3)ccn3nc(C(F)F)nc23)cc2cn[nH]c12` [Example 46, 2-(Difluoromethyl)-7-(4-fluorophenyl)-8-(7-methyl-1H-indazol-5-yl)-[1,2,4]triazolo[1,5-a]pyridine], 10.5; in that of `Cc1cc(-c2c(C)ccn3cc(-c4ccccc4)nc23)cc2c1NC(=O)C2` [Example 55, 7-Methyl-5-(7-methyl-2-phenyl-imidazo[1,2-a]pyridin-8-yl)indolin-2-one], 7.4. Still for that read-out and setting: in the case of `FC(F)(F)c1nc2c(-c3cc(Cl)c4[nH]ncc4c3)c(Cl)ccn2n1` [Example 41, 7-Chloro-8-(7-chloro-1H-indazol-5-yl)-2-(trifluoromethyl)-[1,2,4]triazolo[1,5-a]pyridine] it was 9.0; in that of `Cc1ccn2cc(C(F)(F)F)nc2c1-c1cc(C)c2[nH]ncc2c1` [Example 52, 7-Methyl-8-(7-methyl-1H-indazol-5-yl)-2-(trifluoromethyl)imidazo[1,2-a]pyridine], 8.0; in that of `Cc1cc(-c2c(C(F)(F)F)ccn3nc(C(F)F)nc23)cc2c1NC(=O)C2` [Example 18, 7-Methyl-5-(2-(difluoromethyl)-7-(trifluoromethyl)-[1,2,4]triazolo[1,5-a]pyridin-8-yl)indolin-2-one], 8.6.

Take `O=C1Cc2cc(-c3c(C(F)(F)F)ccn4nc(C(F)(F)F)nc34)cc(Cl)c2N1` [Example 21, 5-(2,7-Bis(trifluoromethyl)-[1,2,4]triazolo[1,5-a]pyridin-8-yl)-7-chloroindolin-2-one]: the pIC50 was 9.5. As to `Cc1cc(-c2c(C(F)F)ccn3nc(C(F)(F)F)nc23)cc2cn[nH]c12` [Example 24, 8-(7-Methyl-1H-indazol-5-yl)-7-(difluoromethyl)-2-(trifluoromethyl)-[1,2,4]triazolo[1,5-a]pyridine], the pIC50 was 9.2. The same measure, in the same setting: in the case of `O=C1Cc2cc(-c3c(C(F)F)ccn4nc(C(F)(F)F)nc34)cc(Cl)c2N1` [Example 25, 7-Chloro-5-(7-(difluoromethyl)-2-(trifluoromethyl)-[1,2,4]triazolo[1,5-a]pyridin-8-yl)indolin-2-one] it was 9.2. Still for that read-out and setting: in the case of `COc1ccn2cc(C(F)(F)F)nc2c1-c1cc(C)c2[nH]ncc2c1` [Example 59, 7-Methoxy-8-(7-methyl-1H-indazol-5-yl)-2-(trifluoromethyl)imidazo[1,2-a]pyridine] it was 8.1. Consider `CC(C)c1cn2ccc(C(F)(F)F)c(-c3cc(Cl)c4[nH]ncc4c3)c2n1` [Example 89, 8-(7-Chloro-1H-indazol-5-yl)-2-isopropyl-7-(trifluoromethyl)imidazo[1,2-a]pyridine], for which the pIC50 was found to be 10.6.

For the origin of these results see US10155769B2, “Fused azaheterocyclic compounds and their use as AMPA receptor modulators” (Janssen Pharmaceutica NV, priority 2016, dated 2018).
